Data: the OligoGym collection
HELM strings list units from the 5' end as sugar, base in round brackets, then linkage (d deoxyribose, r ribose, m 2'-O-methyl, p phosphodiester). Strings are as the collection lists them; they lack the last nucleoside at the 3' end of the tested compound. [moe] = 2'-O-(2-methoxyethyl) (MOE); [sp] = phosphorothioate linkage; [m5C] = 5-methylcytosine

Biological target: ATXN3
Assay: mouse, dose not given
Conditions: ASO

Substance | 3 h FOB score [score 0-7]
RNA1{[moe](G)[sp].[moe](T)p.[moe](T)p.[moe]([m5C])p.[moe](A)p.[moe](T)p.d(A)[sp].d(T)[sp].d([m5C])[sp].d([m5C])[sp].d(T)[sp].d(T)[sp].d(T)[sp].d(A)[sp].d(A)[sp].d([m5C])[sp].[moe]([m5C])p.[moe]([m5C])[sp].[moe](A)}$$$$ (last 3' nucleoside missing) | 0.25
RNA1{[moe](G)[sp].[moe]([m5C])p.[moe]([m5C])p.[moe](A)p.[moe](T)p.[moe](T)p.d(A)[sp].d(A)[sp].d(T)[sp].d([m5C])[sp].d(T)[sp].d(A)[sp].d(T)[sp].d(A)[sp].d([m5C])[sp].d(T)[sp].[moe](G)p.[moe](A)[sp].[moe](A)}$$$$ (last 3' nucleoside missing) | 0
RNA1{[moe]([m5C])[sp].[moe](T)p.[moe](G)p.[moe](T)p.[moe](A)[sp].d([m5C])[sp].d(A)[sp].d([m5C])[sp].d(T)[sp].d(T)[sp].d(T)[sp].d(T)[sp].d(A)[sp].d([m5C])[sp].d(A)[sp].[moe](T)p.[moe](T)p.[moe]([m5C])[sp].[moe]([m5C])}$$$$ (last 3' nucleoside missing) | 1
RNA1{[moe](G)[sp].[moe]([m5C])p.[moe](A)p.[moe]([m5C])p.[moe](A)p.[moe]([m5C])p.d(T)[sp].d(T)[sp].d(T)[sp].d([m5C])[sp].d([m5C])[sp].d(T)[sp].d([m5C])[sp].d([m5C])[sp].d(T)[sp].d([m5C])[sp].[moe](A)p.[moe](A)[sp].[moe](T)}$$$$ (last 3' nucleoside missing) | 0
RNA1{[moe](T)[sp].[moe](A)p.[moe](A)p.[moe](T)p.[moe](A)p.[moe]([m5C])p.d(T)[sp].d(T)[sp].d(T)[sp].d(T)[sp].d(T)[sp].d([m5C])[sp].d([m5C])[sp].d(A)[sp].d(G)[sp].d([m5C])[sp].[moe]([m5C])p.[moe](T)[sp].[moe](T)}$$$$ (last 3' nucleoside missing) | 3
RNA1{[moe](T)[sp].[moe](G)p.[moe](T)p.[moe](A)p.[moe]([m5C])[sp].d(A)[sp].d([m5C])[sp].d(T)[sp].d(T)[sp].d(T)[sp].d(T)[sp].d(A)[sp].d([m5C])[sp].d(A)[sp].d(T)[sp].[moe](T)p.[moe]([m5C])p.[moe]([m5C])[sp].[moe]([m5C])}$$$$ (last 3' nucleoside missing) | 1
RNA1{[moe](G)[sp].[moe]([m5C])p.[moe](A)p.[moe]([m5C])p.[moe]([m5C])p.[moe](A)p.d(T)[sp].d(A)[sp].d(T)[sp].d(A)[sp].d(T)[sp].d(A)[sp].d(T)[sp].d([m5C])[sp].d(T)[sp].d([m5C])[sp].[moe](A)p.[moe](G)[sp].[moe](A)}$$$$ (last 3' nucleoside missing) | 0.25
RNA1{[moe](G)[sp].[moe]([m5C])p.[moe](A)p.[moe](T)p.[moe](A)p.d(T)[sp].d(T)[sp].d(G)[sp].d(G)[sp].d(T)[sp].d(T)[sp].d(T)[sp].d(T)[sp].d([m5C])[sp].d(T)[sp].[moe]([m5C])p.[moe](A)p.[moe](T)p.[moe](T)}$$$$ (last 3' nucleoside missing) | 3
RNA1{[moe](G)[sp].[moe]([m5C])p.[moe](T)p.[moe](A)p.[moe](T)[sp].d(A)[sp].d(A)[sp].d(T)[sp].d(T)[sp].d([m5C])[sp].d(T)[sp].d(T)[sp].d(G)[sp].d([m5C])[sp].d(T)[sp].[moe](T)p.[moe]([m5C])p.[moe](A)[sp].[moe](A)}$$$$ (last 3' nucleoside missing) | 1.75
RNA1{[moe](G)[sp].[moe]([m5C])p.[moe]([m5C])[sp].[moe](A)[sp].[moe](A)[sp].d(A)[sp].d(A)[sp].d(T)[sp].d(A)[sp].d([m5C])[sp].d(T)[sp].d(A)[sp].d(A)[sp].d([m5C])[sp].d(A)[sp].[moe](T)[sp].[moe]([m5C])p.[moe](A)[sp].[moe](G)}$$$$ (last 3' nucleoside missing) | 2.5
RNA1{[moe](G)[sp].[moe](T)p.[moe](T)p.[moe](A)p.[moe](A)p.[moe](T)p.d(A)[sp].d([m5C])[sp].d(T)[sp].d(T)[sp].d(T)[sp].d(T)[sp].d(T)[sp].d([m5C])[sp].d([m5C])[sp].d(A)[sp].[moe](G)p.[moe]([m5C])[sp].[moe]([m5C])}$$$$ (last 3' nucleoside missing) | 1
RNA1{[moe](A)[sp].[moe](A)p.[moe](T)p.[moe](T)p.[moe]([m5C])[sp].d(T)[sp].d(T)[sp].d(G)[sp].d([m5C])[sp].d(T)[sp].d(T)[sp].d([m5C])[sp].d(A)[sp].d(A)[sp].d([m5C])[sp].[moe]([m5C])p.[moe](A)p.[moe](T)[sp].[moe]([m5C])}$$$$ (last 3' nucleoside missing) | 1.25
RNA1{[moe](A)[sp].[moe](T)p.[moe](G)p.[moe]([m5C])p.[moe](T)[sp].d([m5C])[sp].d(A)[sp].d(T)[sp].d(T)[sp].d(T)[sp].d(A)[sp].d(T)[sp].d(T)[sp].d([m5C])[sp].d(T)[sp].[moe]([m5C])p.[moe](A)p.[moe](A)[sp].[moe](G)}$$$$ (last 3' nucleoside missing) | 0
RNA1{[moe](A)[sp].[moe](T)p.[moe](G)p.[moe](A)p.[moe](G)[sp].d([m5C])[sp].d([m5C])[sp].d(A)[sp].d(A)[sp].d(T)[sp].d(A)[sp].d(T)[sp].d(T)[sp].d(T)[sp].d(A)[sp].[moe](T)p.[moe](A)p.[moe](G)[sp].[moe](G)}$$$$ (last 3' nucleoside missing) | 1
RNA1{[moe](A)[sp].[moe](T)p.[moe](G)p.[moe](T)p.[moe](T)p.[moe]([m5C])p.d(A)[sp].d(T)[sp].d(A)[sp].d(T)[sp].d([m5C])[sp].d([m5C])[sp].d(T)[sp].d(T)[sp].d(T)[sp].d(A)[sp].[moe](A)p.[moe]([m5C])[sp].[moe]([m5C])}$$$$ (last 3' nucleoside missing) | 0
RNA1{[moe](G)[sp].[moe](T)p.[moe](T)[sp].[moe](A)[sp].[moe](A)[sp].d(T)[sp].d(A)[sp].d([m5C])[sp].d(T)[sp].d(T)[sp].d(T)[sp].d(T)[sp].d(T)[sp].d([m5C])[sp].d([m5C])[sp].[moe](A)[sp].[moe](G)p.[moe]([m5C])[sp].[moe]([m5C])}$$$$ (last 3' nucleoside missing) | 1
RNA1{[moe](T)[sp].[moe](G)[sp].[moe]([m5C])p.[moe](T)p.[moe]([m5C])[sp].d(A)[sp].d(T)[sp].d(T)[sp].d(T)[sp].d(A)[sp].d(T)[sp].d(T)[sp].d([m5C])[sp].d(T)[sp].d([m5C])[sp].[moe](A)p.[moe](A)p.[moe](G)[sp].[moe](T)}$$$$ (last 3' nucleoside missing) | 1
RNA1{[moe](G)[sp].[moe](T)p.[moe](T)p.[moe](A)p.[moe](A)p.d(T)[sp].d(A)[sp].d([m5C])[sp].d(T)[sp].d(T)[sp].d(T)[sp].d(T)[sp].d(T)[sp].d([m5C])[sp].d([m5C])[sp].[moe](A)p.[moe](G)p.[moe]([m5C])[sp].[moe]([m5C])}$$$$ (last 3' nucleoside missing) | 1
RNA1{[moe](T)[sp].[moe](G)p.[moe]([m5C])p.[moe](T)p.[moe](T)p.d(T)[sp].d(T)[sp].d([m5C])[sp].d(A)[sp].d(T)[sp].d(A)[sp].d([m5C])[sp].d([m5C])[sp].d(A)[sp].d(G)[sp].[moe](G)p.[moe](T)p.[moe]([m5C])[sp].[moe](T)}$$$$ (last 3' nucleoside missing) | 1.25
RNA1{[moe](G)[sp].[moe](T)p.[moe](G)p.[moe]([m5C])p.[moe](T)[sp].d(T)[sp].d(T)[sp].d(T)[sp].d([m5C])[sp].d(A)[sp].d(T)[sp].d(A)[sp].d([m5C])[sp].d([m5C])[sp].d(A)[sp].[moe](G)p.[moe](G)p.[moe](T)[sp].[moe]([m5C])}$$$$ (last 3' nucleoside missing) | 1
RNA1{[moe](T)[sp].[moe](A)p.[moe](A)p.[moe](T)p.[moe](A)[sp].d([m5C])[sp].d(U)[sp].d(T)[sp].d(T)[sp].d(T)[sp].d(T)[sp].d([m5C])[sp].d([m5C])[sp].d(A)[sp].d(G)[sp].[moe]([m5C])p.[moe]([m5C])p.[moe](T)[sp].[moe](T)}$$$$ (last 3' nucleoside missing) | 1
RNA1{[moe](G)[sp].[moe]([m5C])p.[moe]([m5C])p.[moe](A)p.[moe](A)[sp].d(T)[sp].d(A)[sp].d(T)[sp].d(T)[sp].d(T)[sp].d(A)[sp].d(T)[sp].d(A)[sp].d(G)[sp].d(G)[sp].[moe](T)p.[moe](G)p.[moe]([m5C])[sp].[moe](T)}$$$$ (last 3' nucleoside missing) | 3
RNA1{[moe]([m5C])[sp].[moe](A)p.[moe]([m5C])p.[moe](A)p.[moe]([m5C])[sp].d(T)[sp].d(T)[sp].d(T)[sp].d([m5C])[sp].d([m5C])[sp].d(T)[sp].d([m5C])[sp].d([m5C])[sp].d(T)[sp].d([m5C])[sp].[moe](A)p.[moe](A)p.[moe](T)[sp].[moe]([m5C])}$$$$ (last 3' nucleoside missing) | 0
RNA1{[moe](T)[sp].[moe](G)p.[moe](G)p.[moe]([m5C])p.[moe](A)p.d([m5C])[sp].d(A)[sp].d(T)[sp].d(T)[sp].d(T)[sp].d(T)[sp].d(T)[sp].d(T)[sp].d(A)[sp].d(T)[sp].[moe](A)p.[moe](G)p.[moe](A)[sp].[moe](G)}$$$$ (last 3' nucleoside missing) | 2.5
RNA1{[moe]([m5C])[sp].[moe]([m5C])p.[moe](A)p.[moe](A)p.[moe](T)[sp].d(A)[sp].d(T)[sp].d(T)[sp].d(T)[sp].d(A)[sp].d(T)[sp].d(A)[sp].d(G)[sp].d(G)[sp].d(T)[sp].[moe](G)p.[moe]([m5C])p.[moe](T)[sp].[moe](G)}$$$$ (last 3' nucleoside missing) | 3.5
RNA1{[moe](A)[sp].[moe](T)p.[moe](T)p.[moe](T)p.[moe](T)[sp].d([m5C])[sp].d(A)[sp].d(T)[sp].d(G)[sp].d(T)[sp].d(T)[sp].d([m5C])[sp].d([m5C])[sp].d(A)[sp].d(G)[sp].[moe](A)p.[moe](T)p.[moe]([m5C])[sp].[moe](A)}$$$$ (last 3' nucleoside missing) | 1
